According to patent US10995150B2, “Methods for inhibiting atherosclerosis by administering an anti-PCSK9 antibody” (REGENERON PHARMACEUTICALS, INC., priority 2013, dated 2021):

Key:
[1] = tested on: APOE*3Leiden.CETP mice; test: Histological assessment of atherosclerosis in the aortic root; format: in vivo, mouse; conditions: 18 weeks; for lesion severity (severe type IV-V lesions) compared with the control / lesion-free sections / undiseased segments compared with the control: dose of mAb316P not specified
From the text: (§1) Hearts were isolated, fixed in formalin, and embedded in paraffin. Cross-sections (5 μm each) of the entire aortic root area were stained with hematoxylin-phloxin-saffron. For each mouse, four sections at intervals of 50 μm were used for quantitative and qualitative assessment of the atherosclerotic lesions. To determine atherosclerotic lesion size and severity, the lesions were classified into five categories according to the American Heart Association classification: I) early fatty streak, II) regular fatty streak, III) mild plaque, IV) moderate plaque, and V) severe plaque. Total lesion area and number of lesions per cross-section, as well as the percentage undiseased segments, were calculated. To assess lesion severity as a percentage of all lesions, type I-Ill lesions were classified as mild lesions, and type IV-V lesions were classified as severe lesions. To determine the total plaque load in the thoracic aorta, perfusion-fixed aortas (from the aortic origin to the diaphragm) were cleaned of extravascular fat, opened longitudinally, pinned en face, and stained for lipids with oil-red O as described previously by Verschuren et al. (Arterioscler Thromb Vasc Biol. 2005; 25:161-167). Data were normalized for analyzed surface area and expressed as percentage of the stained area. Photos/images were taken with the Olympus BX51 microscope and lesion areas were measured using Cell D imaging software (Olympus Soft Imaging Solutions).

[2] = tested on: APOE*3Leiden.CETP mice; test: Total plaque load in the aortic arch (oil-red O); format: in vivo, mouse; conditions: mAb316P 10 mg/kg, alone or + atorvastatin 3.6 mg/kg/d; 18 weeks
From the text: as §1, with “To determine the total plaque load in the thoracic aorta, perfusion-fixed aortas (from the aortic origin to the diaphragm) were cleaned of extravascular fat, opened longitudinally, pinned en face, and stained for lipids with oil-red O as described previously by Verschuren et al. (Arterioscler Thromb Vasc Biol. 2005; 25:161-167).” left out

[3] = tested on: APOE*3Leiden.CETP mice; test: Flow cytometric analysis of white blood cells (PBMC); format: in vivo, mouse
From the text: After 8 weeks of treatment, peripheral blood mononuclear cells (PBMCs) were isolated from fresh blood samples and were sorted into GR-1+ (neutrophils/granulocytes), GR-1− (lymphocytes/monocytes), CD3+ (T-cells), CD19+ (B-cells) and CD11b+/Ly6C^low and CD11b+/Ly6C^hi (monocytes) cells using flow cytometric (FACS) analysis. The following conjugated monoclonal antibodies were used from Becton Dickinson: GR-1 FITC, CD3 PerCpCy5-5, CD19 V450, CD11b APC and Ly6C PE-Cy7.

[4] = tested on: APOE*3Leiden.CETP mice; test: Plasma total cholesterol, triglycerides and lipoprotein profiles; format: in vivo, mouse; conditions: for TC reductions in lipoprotein profile (FPLC): lipoprotein separation by FPLC, FIG. 1C/1D; for average plasma TC, change compared to control: alone or + atorvastatin 3.6 mg/kg/d in diet
From the text: Ninety female APOE*3Leiden.CETP transgenic mice (9 to 13 weeks of age), expressing human CETP under control of its natural flanking regions, were used. During the study, mice were housed under standard conditions with a 12-hour light-dark cycle and had free access to food and water. Animal experiments were approved by the Institutional Animal Care and Use Committee of The Netherlands Organization for Applied Research.
Plasma was isolated from blood collected in ethylenediaminetetraacetic acid (EDTA)-coated cups via tail vein bleeding after a 4-hour fast every 2 to 4 weeks. Plasma TC and TG were determined using enzymatic kits according to the manufacturer's protocols (cat. no. 1458216 and cat. no. 1488872, respectively; Roche/Hitachi) and average plasma TC and TG levels were calculated. Lipoprotein profiles for TC were measured after lipoprotein separation by fast protein liquid chromatography (FPLC) after 4, 12, and 18 weeks of treatment. MAb316P levels were measured by a human Fc enzyme-linked immunosorbent assay.

[5] = tested on: hepatic LDLR protein; test: Hepatic LDLR protein levels (Western blot); format: in vivo, mouse; conditions: alone or + atorvastatin 3.6 mg/kg/d, 18 weeks
Description: Liver tissues were homogenized in lysis buffer (50 mM Tris-HCL [pH=7.4], 150 mM NaCl, 0.25% deoxycholic acid, 1% NP-40 [Igepal], 1 mM EDTA, protease inhibitor cocktail [complete, Roche], 1 mM PMSF, 1 mM Na3VO4) and then centrifuged at 6500 rpm at 4° C. for 30 minutes. Protein concentration in cell lysates was determined by bicinchonic acid protein assay (Thermo Scientific) according to manufacturer's instructions. 50 μg of protein lysates was separated by SDS-PAGE and then transferred to polyvinylidene fluoride membranes (Millipore). Blots were subjected to goat anti-mouse LDLR from R&D Systems and rabbit anti-goat horseradish peroxidase (HRP) from AbD Serotec or mouse anti-α-Tubulin from Sigma and horse anti-mouse HRP from Cell Signaling Technologies (according to the manufacturer's instructions); blots were developed with West Femto Super Signal ECL (Thermo Scientific) and subjected to the Chemi-Doc-it imaging system. Intensities of protein bands were quantified using Image J software.

[6] = tested on: APOE*3Leiden.CETP mice; test: Liver weight and hepatic lipid analysis; conditions: atorvastatin 3.6 mg/kg/d alone; 18 weeks
From the text: Mice received a semi-synthetic cholesterol-rich diet, containing 15% (w/w) cacao butter and 0.15% cholesterol (Western-type diet [WTD]; Hope Farms, Woerden, The Netherlands) for a run-in period of 3 weeks to increase plasma total cholesterol (TC) levels up to ˜15 mmol/L. Body weight (BW) and food intake were monitored regularly during the study. […] At the end of the treatment period, all animals were sacrificed by CO2 inhalation. Livers and hearts were isolated to assess hepatic LDLR protein levels, lipid content, atherosclerosis development, and plaque composition.
Liver tissue samples were homogenized in phosphate-buffered saline, and the protein content was measured. Lipids were extracted, separated by high-performance thin-layer chromatography on silica gel plates, and analyzed with TINA2.09 software (Raytest Isotopen Messgerate Straubenhardt, Germany), as previously described by Post et al. (Hepatology. 1999; 30:491-500).

[7] = mAb316P 3 mg/kg weekly s.c., alone or + atorvastatin 3.6 mg/kg/d
[8] = mAb316P 10 mg/kg weekly s.c., alone or + atorvastatin 3.6 mg/kg/d
[9] = 10 mg/kg MAb316P and/or atorvastatin, after 8 weeks of treatment, mean ± SD
[10] = mAb316P 10 mg/kg, alone or + atorvastatin, 8 weeks
[11] = mAb316P 3 mg/kg weekly s.c., 18 weeks
[12] = mAb316P 10 mg/kg weekly s.c., 18 weeks

## mAb316P: human anti-PCSK9 antibody; HCVR SEQ ID NO:1, LCVR SEQ ID NO:6
[1]
  lesion severity (severe type IV-V lesions) compared with the control: fewer severe (type IV-V) lesions
  lesion-free sections / undiseased segments compared with the control: more lesion-free sections
[1]; [7]
  atherosclerotic lesion size (aortic root), change compared to the control: −71%
  number of lesions per cross-section, change compared to the control: −17%
[1]; [8]
  atherosclerotic lesion size (aortic root), change compared to the control: −88%
  number of lesions per cross-section, change compared to the control: −30%
[2]
  total plaque area in the aortic arch, change vs control: −67%
[3]; [9]
  B-cells: 66.3 ± 15.0 % of PBMC population
  CD11b+ Ly6C^hi: 57.5 ± 8.4 % of monocytes
  CD11b+ Ly6C^low: 40.0 ± 8.0 % of monocytes
  Lymphocytes/Monocytes: 92.9 ± 2.0 % of PBMC population
  Monocytes: 8.9 ± 2.5 % of PBMC population
  Neutrophils/Granulocytes: 7.1 ± 2.0 % of PBMC population
[3]; [10]
  anti-inflammatory Ly6C^low monocytes, change vs control: +12%
  granulocytes/neutrophils (as % of PBMC population), change vs control: −20%
  monocytes (as % of PBMC population), change vs control: −28%
  pro-inflammatory Ly6C^hi monocytes, change vs control: −8%
[4]; alone, or both with atorvastatin 3.6 mg/kg/d, 18 weeks
  TC, 3 mg mAb316P versus 10 mg mAb316P (dose dependence): −14%
[4]
  TC reductions in lipoprotein profile (FPLC): confined to apoB-containing lipoproteins
[4]; [11]
  average plasma TC, change compared to control: −37%
  average plasma TG, change compared to control: −33%
[4]; [12]
  average plasma TC, change compared to control: −46%
  average plasma TG, change compared to control: −39%
[5]; mAb316P 3 mg/kg weekly s.c.
  Hepatic LDLR protein levels, change vs control: +80%
[5]; mAb316P 10 mg/kg weekly s.c.
  Hepatic LDLR protein levels, change vs control: +133%

## CC(C)c1c(C(=O)Nc2ccccc2)c(-c2ccccc2)c(-c2ccc(F)cc2)n1CC[C@@H](O)C[C@@H](O)CC(=O)O [atorvastatin, reference compound]
[6]
  liver weight, change compared to the control group: −15%
[1]
  lesion severity (severe type IV-V lesions) compared with the control: reduced severity to a lesser extent
  lesion-free sections / undiseased segments compared with the control: no effect
[1]; atorvastatin 3.6 mg/kg/d alone
  atherosclerotic lesion size (aortic root), change compared to the control: −35%
  effect on the number of lesions: no effect
[3]; [9]
  B-cells: 69.5 ± 17.4 % of PBMC population
  CD11b+ Ly6C^hi: 51.2 ± 6.4 % of monocytes
  CD11b+ Ly6C^low: 47.8 ± 6.3 % of monocytes
  Lymphocytes/Monocytes: 94.9 ± 1.6 % of PBMC population
  Monocytes: 5.3 ± 2.4 % of PBMC population
  Neutrophils/Granulocytes: 5.1 ± 1.6 % of PBMC population
  T-cells: 17.0 ± 4.8 % of PBMC population
[4]
  TC reductions in lipoprotein profile (FPLC): confined to apoB-containing lipoproteins
